Assays:
[1] = Dose-ranging study of DITPA in normal volunteers: clinical variables and tolerability; type: in vivo, human; conditions: for Weight: normal volunteers n=7, oral, baseline 84.2 ± 2.6; for Weight / Heart Rate / Diastolic Blood Pressure / Systolic Blood Pressure: mean ± SE; for Heart Rate: baseline 55.4 ± 2.9; for Diastolic Blood Pressure: baseline 77.1 ± 3.5; for Systolic Blood Pressure: baseline 121.3 ± 4.4
Description: In clinical trials discussed below wherein DITPA was orally administered to volunteers and patients, the DITPA was mixed under the supervision of a registered pharmacist with lactose and packed into gelatin capsules containing 50 mg of the active ingredient. Identical capsules were packed with lactose to serve as placebo medication.
A dose-ranging study was performed with seven (7) normal volunteers. Study participants comprised men between the ages of 18 and 65 years of age. Before participating in the study, a complete physical examination, electrocardiogram, and echocardiogram were obtained. A complete blood count (CBC), blood chemistries (including liver enzymes and lipids profile), and thyroid function studies (total T3, total T4, free T4, rT3, and thyrotropin) were measured.
On day 1, these normal volunteers were started on 1.875 mg/kg in two divided doses per day. This treatment regimen was continued for two weeks. At the end of the second week, the initial laboratory studies were repeated. The dose was then doubled to 3.75 mg/kg and the volunteers were treated for two additional weeks. At the end of this time physical examination and all laboratory variables again were measured.
Volunteer data were analyzed using Student's paired t-test. Baseline data in DITPA and placebo groups were compared by Student's unpaired t-test. Comparison of placebo and drug treated groups was made by repeated measures ANOVA (SPSS Version 9.5, SPSS Chicago, 11). If P values for drug-time interactions were significant a priori contrasts were performed of the drug-time interaction for two weeks versus baseline. When data were available only at baseline and four week, comparisons were made by difference scores. Baseline values for each participant were subtracted from values after four weeks of treatment and the differences between DITPA and placebo treatments then were compared. P values by two-tailed testing less than 0.05 were considered to be significant.
As noted above, seven normal volunteers received DITPA at two dosage levels for two and four weeks.

[2] = Dose-ranging study of DITPA in normal volunteers: thyroid hormone measurements; type: in vivo, human; conditions: for Thyrotropin: baseline 3.53 ± 1.00; for Thyrotropin / Free T4 / Total T4 / rT3: mean ± SEM; for Free T4: baseline 1.04 ± .04; for Total T4: baseline 8.73 ± .85; for rT3: baseline 23.23 ± 1.71
Description: A dose-ranging study was performed with seven (7) normal volunteers. Study participants comprised men between the ages of 18 and 65 years of age. Before participating in the study, a complete physical examination, electrocardiogram, and echocardiogram were obtained. […] On day 1, these normal volunteers were started on 1.875 mg/kg in two divided doses per day. This treatment regimen was continued for two weeks. At the end of the second week, the initial laboratory studies were repeated. The dose was then doubled to 3.75 mg/kg and the volunteers were treated for two additional weeks. At the end of this time physical examination and all laboratory variables again were measured. Volunteer data were analyzed using Student's paired t-test. Baseline data in DITPA and placebo groups were compared by Student's unpaired t-test. Comparison of placebo and drug treated groups was made by repeated measures ANOVA (SPSS Version 9.5, SPSS Chicago, 11). If P values for drug-time interactions were significant a priori contrasts were performed of the drug-time interaction for two weeks versus baseline. When data were available only at baseline and four week, comparisons were made by difference scores. Baseline values for each participant were subtracted from values after four weeks of treatment and the differences between DITPA and placebo treatments then were compared. […] Table II summarizes thyroid hormone measurements after two and four weeks of treatment with DITPA in normal volunteers.

[3] = Heart failure patients: right heart catheterization hemodynamics; type: in vivo, human
Description: All patients were hospitalized before initiating treatment and a right heart catheterization, radionuclide ejection fraction and echocardiogram were performed. Serum samples were drawn for measurement of thyrotropin, total T4, free T4, and reverse T3.
DITPA cross-reacted with antibodies for detection of T3, which consequently was not measured. Renal and hepatic function tests also were performed. Patients were randomly assigned in double-blind fashion to receive either DITPA at a dosage of 1.875 mg/kg daily or placebo in two or three divided doses. For the first four days of drug administration patients were monitored on a telemetry unit. Thereafter, weekly electrocardiograms were performed and patients were examined for changes in thyroid or cardiac status or evidence of drug toxicity.
At the end of two weeks an echocardiogram was obtained. If there was no clinical evidence of progression of heart failure or development of an arrhythmia the dose of DITPA was increased to 3.75 mg/kg daily. After an additional two weeks of treatment with the higher dosage of the drug patients were readmitted to the hospital and the tests performed in the initial evaluation were repeated.
Right heart catheterization was performed after the patient had been fasted overnight; no premedication was given. Pulmonary artery, pulmonary capillary wedge and right heart pressures were measured with a 7 Fr Swan-Ganz catheter introduced into the right femoral vein. Blood pressures were recorded with an automated arm cuff system. After an initial stabilization period of 20 to 30 minutes, the resting hemodynamic measurements were obtained. Thermodilution cardiac output measurements were averaged from five recordings after discarding the highest and lowest values. All blood tests were performed in the Clinical Pathology Laboratory at the Southern Arizona Veterans Administration Health Care System.

[4] = system: single myocytes from infarcted rabbit hearts; conditions: cited from earlier work
[5] = normal volunteers, after 2 weeks (1.875 mg/kg/day)
[6] = normal volunteers, after 4 weeks (3.75 mg/kg/day)

For `O=C(O)CCc1cc(I)c(Oc2ccc(O)cc2)c(I)c1` [DITPA, 3,5-Diiodothyropropionic acid], the echocardiographic parameters ([1]; normal volunteers) was “not changed significantly”, the Weight ([1]; after 2 weeks (1.875 mg/kg/day)) was 83.5 ± 2.6 kg and the Weight ([1]; after 4 weeks (last 2 weeks 3.75 mg/kg/day)) was 83.6 ± 2.6 kg. The adverse effects ([1]; normal volunteers, 1.875 then 3.75 mg/kg, four weeks) was “no adverse effects were noted”, the “Heart Rate” value [1, 5] was 58.1 ± 3.2 beats/min and the “Diastolic Blood Pressure” value [1, 5] was 76.1 ± 2.9 mm Hg. For the same compound, the “Systolic Blood Pressure” value [1, 5] was 122.0 ± 5.4 mm Hg, the “Heart Rate” value [1, 6] was 64.3 ± 3.4 beats/min and the “Diastolic Blood Pressure” value [1, 6] was 71.6 ± 3.8 mm Hg. For the same compound, the “Systolic Blood Pressure” value [1, 6] was 116.3 ± 6.1 mm Hg, the “changes in blood pressure and pulse rate” value ([1]; normal volunteers, at either dose) was “no significant changes” and the tolerability ([1]; normal volunteers, both doses) was “well tolerated”. For the same compound, the Thyrotropin ([2]; normal volunteers n=7, after 2 weeks (1.875 mg/kg/day)) was 0.69 ± .38 mu/L, the Thyrotropin ([2]; normal volunteers n=7, after 4 weeks (3.75 mg/kg/day)) was 0.44 ± .29 mu/L and the “Free T4” value [2, 5] was 0.95 ± .07 ng/dL. For the same compound, the “Total T4” value [2, 5] was 5.76 ± .39 µg/dL, the rT3 [2, 5] was 47.41 ± 7.11 ng/dL and the “Free T4” value [2, 6] was 1.05 ± .06 ng/dL. For the same compound, the “Total T4” value [2, 6] was 5.89 ± .44 µg/dL, the rT3 [2, 6] was 69.56 ± 9.93 ng/dL and the “average values for thyrotropin” value ([2]; normal volunteers, after two additional weeks at 3.75 mg/kg, normal range 0.48 to 4.0 μU/ml) was 0.44±0.29 μU/ml. The “Cardiac Index” value ([3]; after 4 weeks, baseline 2.10 ± 0.14, P 0.04 vs placebo) was 2.54 ± 0.16 liters/min/m^2, the “Mean Arterial Pressure” value ([3]; after 4 weeks, baseline 96.2 ± 6.7) was 92.0 ± 5.7 mm Hg and the “Systemic Vascular Resistance” value ([3]; after 4 weeks, baseline 3,465 ± 319, P 0.02 vs placebo) was 2,644 ± 257 dynes x sec x cm^−5. The “Heart Rate” value ([3]; heart failure patients n=9, right heart catheterization, after 4 weeks of treatment, baseline 84.8 ± 4.9) was 89.6 ± 5.3, the Right atrial pressure ([3]; right heart catheterization, after 4 weeks, baseline 8.1 ± 1.7) was 10.5 ± 1.8 mm Hg and the “Pulmonary artery pressures, Wedge” value ([3]; right heart catheterization, after 4 weeks, baseline 24.0 ± 3.9) was 21.8 ± 2.75 mm Hg. The “Pulmonary artery pressures, Diastolic” value ([3]; right heart catheterization, after 4 weeks, baseline 25.1 ± 4.1) was 25.4 ± 2.5 mm Hg, the “Pulmonary artery pressures, Mean” value ([3]; right heart catheterization, after 4 weeks, baseline 30.1 ± 5.0) was 33.4 ± 3.2 mm Hg and the “Pulmonary artery pressures, Systolic” value ([3]; right heart catheterization, after 4 weeks, baseline 45.0 ± 6.2) was 49.1 ± 5.3 mm Hg. For the same compound, the “Cardiac Output” value ([3]; thermodilution, after 4 weeks, baseline 4.50 ± 0.36, P 0.07 vs placebo) was 5.30 ± 0.36 L/min, the “calcium transport in the sarcoplasmic reticulum (SR)” value ([4]; post-infarction heart failure in rabbits) was “enhances calcium transport in the sarcoplasmic reticulum (SR)” and the contraction-frequency relationship ([4]; single myocytes from infarcted rabbit hearts) was “prevents the flattened contraction-frequency relationship”.
